This is an account of results in PubChem BioAssay (NCI).

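1) Cells in 96-well plates. 2) Compound, 48 h, 5 concentrations. 3) Linear interpolation between surrounding doses. 4) Unreached endpoint = highest concentration. Abbreviation: GI50, concentration required for 50% inhibition of growth. TGI denotes the concentration required for complete inhibition of growth.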

Common to all, as to experiment: growth of human tumour cells (NCI), 48 h
The test system of assay [1] is BT-549 breast.
The test system of assay [2] is DU-145 prostate.
For assay [3], the system named is HS 578T breast.
In assay [4] the test system is LOX IMVI melanoma.
In assay [5] the test system is MDA-MB-231 breast.
The subject of assay [6] is NCI-H522 lung.
Assay [7] relates to SK-MEL-5 melanoma.
Assay [8] concerns SN12C renal.
Assay [9] has as its system U251 CNS.
Assay [10] has as its system HCC-2998 colon.

As for `O=C1c2ccccc2-c2c1c1ccccc1c(=O)n2Cc1ccccc1`, the TGI in [1], in [2], in [3], in [4], in assay [5] and in assay [6] was more than 100 µM each time. Further, the TGI in assay [7], in assay [8] and in assay [9] was more than 100 µM each time.

Turning to `CCN(CC)CCCC(C)Nc1c(C)cnc2cc(Cl)c(C)cc12` (centres undefined), the GI50 in assay [1] is 12.9 µM; in [2], 12.8 µM; in assay [3], 19.1 µM; in assay [4] it was 2.17 µM; in assay [5] it was 2.71 µM; in [6] it was 23 µM. For the same compound, the GI50 is 3.92 µM in assay [7], 11.2 µM in assay [8] and 12 µM in assay [9]. For the same compound, the TGI in [1] turned out to be 28.7 µM; in assay [2], 27.8 µM; in assay [3], 45.2 µM; in [4], 10.7 µM; in [5], 10.4 µM; in [6] it was 53.1 µM. The TGI in assay [7] was 13.3 µM; in assay [8], 43.9 µM; in assay [9], more than 100 µM.

As for `Cc1cc(SCC(=O)c2ccccc2)nc2ccccc12`, the TGI in assay [1] is more than 100 µM; in assay [2], more than 100 µM; in assay [3], 64.8 µM; in assay [4], more than 100 µM; in assay [5] it was more than 100 µM; in assay [6], more than 100 µM. For the same compound, the TGI in assay [7], in [8] and in assay [9] was more than 100 µM each time.

Take `COC(=O)C(=O)C(C(=O)C(=O)Nc1ccccc1C(N)=O)c1nc2ccc(Cl)cc2[nH]c1=O` (centres undefined): the TGI in [1], in [2], in assay [10], in assay [3], in assay [4] and in [5] was more than 100 µM throughout. Moreover, the TGI in assay [7], in assay [8] and in assay [9] was more than 100 µM in each case.

`CCN(CC)CCN1CC(O)=C(c2nc(-c3ccc(Cl)cc3)cs2)C1=N`: the GI50 in [1] is 5.17 µM; in [2], 7.26 µM; in assay [10] it was 1.95 µM; in assay [3], 1.5 µM; in [4], 1.83 µM; in assay [5], 1.97 µM. Further, the GI50 in assay [7] was 1.63 µM; in [8], 5.25 µM; in [9], 1.68 µM. Besides, the TGI in [1] is 21.2 µM; in assay [2], 62.4 µM; in assay [10], 3.91 µM; in assay [3] it was 3.59 µM; in assay [4], 3.43 µM; in [5] it was 4.1 µM. Also, the TGI in [7] is 3.02 µM; in assay [8] it was more than 100 µM; in assay [9], 3.17 µM.

As to `O=C(O)CC1OCC=C2CN3CCC45c6ccccc6NC4C1C2CC35` (centres undefined), the TGI in assay [1], in assay [2], in assay [4], in [5], in assay [6] and in assay [7] was more than 100 µM each time. Also, the TGI in [8] and in assay [9] was more than 100 µM each time.

Consider `NC(CC(=O)OCc1ccccc1)C(=O)OCc1ccccc1` (centres undefined), for which the TGI in assay [2] was more than 100 µM; in assay [10], 89.1 µM; in assay [3], more than 100 µM; in assay [4] it was more than 100 µM; in assay [6], more than 100 µM; in assay [7], more than 100 µM. The TGI in assay [8] is more than 100 µM.

Take `CCOC(=O)c1cc(/C(=N\O)c2cc(OC)c(OC)c(OC)c2)n2cc(C)cc(C)c12`: the GI50 is 4.39 µM in assay [1]; 3.67 µM in assay [2]; 5.78 µM in assay [10]; 2.7 µM in assay [3]; 2.4 µM in assay [4]; 2.34 µM in assay [5]. Besides, the GI50 is 2.19 µM in assay [7], 3.86 µM in assay [8] and 2.64 µM in assay [9]. Also, the TGI in [1] is more than 100 µM; in [2], more than 100 µM; in [10] it was more than 100 µM; in assay [3], more than 100 µM; in [4] it was 7.68 µM; in assay [5] it was 5.7 µM. Further, the values for the TGI in [7], in assay [8] and in assay [9] were 5.79 µM, more than 100 µM and 9.32 µM, respectively.

Take `Cc1ccc(/C(=C/C=C(C#N)C#N)Sc2ccc(Cl)cc2)cc1`: the GI50 is 3.37 µM in [1]; 3.95 µM in assay [2]; 18 µM in assay [10]; 14.3 µM in assay [3]; 2.57 µM in assay [4]; 10.5 µM in [5]. Further, the GI50 in assay [7] is 12 µM; in assay [8] it was 4.32 µM; in [9] it was 3.65 µM. The TGI in assay [1] is 9.16 µM; in assay [2] it was 11.3 µM; in assay [10], 31.9 µM; in assay [3], 58.4 µM; in [4] it was 5.98 µM; in assay [5], 28.4 µM. Further, the TGI in [7] was 25.9 µM; in [8], 18 µM; in assay [9] it was 14.8 µM.

In the case of `Nc1ncc(-c2cnn(CCO)c2)c2scc(-c3ccc(NC(=O)Nc4cccc(F)c4)cc3)c12`, the GI50 in assay [1] was 0.618 µM; in assay [2] it was 0.52 µM; in assay [10], 1.39 µM; in assay [3], 0.273 µM; in [5], 1.14 µM; in assay [6], 0.449 µM. The GI50 is 1.03 µM in assay [7], 0.186 µM in [8] and 0.301 µM in assay [9]. The TGI worked out at 3.76 µM in assay [1]; 11.6 µM in assay [2]; 6.79 µM in assay [10]; 3.02 µM in assay [3]; 2.91 µM in assay [5]; 2.29 µM in [6]. Besides, the TGI in assay [7] amounted to 2.35 µM; in assay [8], 6.59 µM; in [9], 1.72 µM.

As for `CN(C)c1ccc(N)cc1`, the GI50 is 4.7 µM in assay [1]; 6.05 µM in [2]; 4.44 µM in assay [10]; 3.94 µM in [4]; 3.99 µM in assay [5]; 1.94 µM in [6]. The GI50 is 3.91 µM in assay [7], 4.35 µM in [8] and 3.36 µM in assay [9]. Also, the TGI in [1] was found to be 16.1 µM; in assay [2], 48.1 µM; in [10], 21.2 µM; in [4], 14.7 µM; in [5] it was 55.2 µM; in assay [6], 7.84 µM. Further, the TGI in [7] is 13.7 µM; in [8] it was 33.9 µM; in assay [9], 13.2 µM.

In the case of `CC(=O)OC1CC(O)C23COC(O)C1(C)C2CC(O)C1(C)C3C(=O)C(O)C2(C)C(c3ccoc3)CC3OC321` (centres undefined), the GI50 in [1] is 0.071 µM; in assay [2] it was 0.9 µM; in assay [10], 0.42 µM; in [4], less than 0.01 µM; in [5], more than 28.7 µM; in [6], 0.401 µM. Moreover, the GI50 in [7] was less than 0.01 µM; in assay [8], more than 100 µM; in assay [9], 0.379 µM. For the same compound, the TGI in assay [1] was more than 100 µM; in [2] it was more than 100 µM; in assay [10], more than 100 µM; in assay [4], 12.5 µM; in [5], more than 100 µM; in assay [6] it was more than 100 µM. Further, the TGI in assay [8] and in [9] was more than 100 µM throughout.

Take `CN(C)CCCn1c2c(c3ccccc3c1=O)C(=O)c1ccccc1-2`: the GI50 in assay [1] is 5.53 µM; in assay [2], 1.33 µM; in [3] it was 8.06 µM; in assay [4], 0.937 µM; in assay [5] it was 1.74 µM; in assay [6], 3.62 µM. Moreover, the GI50 in assay [8] was 0.907 µM; in assay [9], 1.47 µM. The TGI in assay [1] is 19.9 µM; in [2], 8.54 µM; in assay [3], 38 µM; in [4] it was 3.19 µM; in assay [5], 5.09 µM; in assay [6] it was more than 100 µM. For the same compound, the TGI in [8] is 3.07 µM; in assay [9] it was 6.37 µM.

Consider `CN(C)CCNC(=O)c1cccc(C(=O)Nc2ccccc2)c1[N+](=O)[O-]`, for which the TGI in assay [1], in assay [2], in assay [10], in assay [3], in assay [5] and in assay [6] was more than 100 µM throughout. For the same compound, the TGI in assay [7], in assay [8] and in assay [9] was more than 100 µM throughout.

On to `COC(=O)c1cc(Br)c(Br)n1C`, for which the TGI in [10], in assay [4], in [6], in [7], in [8] and in assay [9] was more than 100 µM in each case.

Turning to `Cc1cc(C)nc(NS(=O)(=O)c2ccc(Nc3c4ccccc4nc4c(C(=O)Nc5ccc(S(=O)(=O)Nc6cc(C)on6)cc5)cccc34)cc2)n1`, the TGI in assay [10] was determined as 30.9 µM; in [4] it was 37.1 µM; in assay [6], 29 µM; in [7], 36.3 µM; in [8], 66.5 µM; in assay [9] it was 41.4 µM.
